Measured values as given in ChEMBL document CHEMBL4184199, “Structural optimization of N1-aryl-benzimidazoles for the discovery of new non-nucleoside reverse transcriptase inhibitors active against wild-type and mutant HIV-1 strains” (Bioorg Med Chem, 2018).
Activity calls are given as the source filed them. No cut-off for these calls is given here.

What was measured:
[1] = tested on: Human immunodeficiency virus 1; experiment: Antiviral activity against HIV1 3B infected in human MT4 cells assessed as reduction in virus-induced cytopathic effect after 5 days by MTT assay; assay type: functional, organism-based; settings: Human immunodeficiency virus 1, 3B, MT4, 120 h
[2] = target: Human immunodeficiency virus type 1 reverse transcriptase (Human immunodeficiency virus 1, UniProt Q72547); experiment: Inhibition of recombinant wild-type HIV-1 3B reverse transcriptase p66/p51 RNA-dependent DNA polymerase activity expressed in Escherichia coli JM109 assessed as reduction in dTTP incorporation using poly(rA)/oligo(dT)16 as template/primer after 40 mins by PicoGreen dye based spectrofluorometric analysis
[3] = Cytotoxicity against human MT4 cells after 5 days by MTT assay; assay type: cell-based
[4] = tested on: Human immunodeficiency virus 2; experiment: Antiviral activity against HIV2 ROD infected in human MT4 cells assessed as reduction in virus-induced cytopathic effect after 5 days by MTT assay; assay type: functional, organism-based; settings: ISOLATE ROD
[5] = Selectivity index, ratio of CC50 for human MT4 cells to EC50 for HIV1 3B expressing wild type reverse transcriptase; assay type: toxicity; settings: read-out: Ratio CC50/EC50

SMILES | IC50 [2] | EC50 [1] | CC50 at 120 h [3] | Activity [4] | selectivity ratio [5]
O=C1Nc2ccc(Cl)cc2[C@@](C#CC2CC2)(C(F)(F)F)O1 [EFAVIRENZ] | – | – | > 6.33 µM | – | –
Cc1cc(C)cc(S(=O)(=O)n2c(SCC(=O)Nc3ccccc3Cl)nc3ccccc32)c1 | – | 0.88 µM | – | inactive | –
Cc1ccnc2c1NC(=O)c1cccnc1N2C1CC1 [NEVIRAPINE] | – | – | > 15 µM | – | –
Cc1cc(C)cc(S(=O)(=O)n2c(OCC(=O)Nc3ccc(S(C)(=O)=O)cc3Cl)nc3ccccc32)c1 | 0.76 µM | 0.12 µM | > 228 µM | inactive | > 1890
Cc1cc(C)cc(S(=O)(=O)n2c(OCC(=O)Nc3ccccc3Br)nc3ccccc32)c1 | 15.7 µM | 1.55 µM | > 243 µM | inactive | > 157
Cc1cc(C)cc(S(=O)(=O)n2c(SCC(=O)Nc3ccccc3Br)nc3ccccc32)c1 | – | – | ≥ 236 µM | inactive | > 3930
COC(=O)c1ccc(NC(=O)COc2nc3ccccc3n2S(=O)(=O)c2cc(C)cc(C)c2)c(Cl)c1 | 5.45 µM | 0.79 µM | 119 µM | inactive | 151
Cc1cc(C)cc(S(=O)(=O)n2c(OCC(=O)Nc3ccc(S(N)(=O)=O)cc3Cl)nc3ccccc32)c1 | 5.84 µM | 0.25 µM | > 227 µM | inactive | > 908
Cc1cc(C)cc(S(=O)(=O)n2c(SCC(=O)Nc3ccc(S(N)(=O)=O)cc3)nc3ccccc32)c1 | 0.05 µM | 0.024 µM | 30.9 µM | inactive | 1290
Cc1cc(C)cc(S(=O)(=O)n2c(SCC(=O)Nc3ccc(S(N)(=O)=O)cc3Cl)nc3ccccc32)c1 | – | – | – | inactive | –
COC(=O)c1ccc(NC(=O)CSc2nc3ccccc3n2S(=O)(=O)c2cc(C)cc(C)c2)c(Cl)c1 | – | – | 145 µM | inactive | –
Cc1cc(C)cc(S(=O)(=O)n2c(OCC(=O)Nc3ccccc3Cl)nc3ccccc32)c1 | 47.3 µM | 1.09 µM | 169 µM | inactive | 155
Cc1cc(C)cc(S(=O)(=O)n2c(SCC(=O)Nc3ccc(S(C)(=O)=O)cc3Cl)nc3ccccc32)c1 | – | – | ≥ 222 µM | – | 5540

Further lines, with some results ahead:

IC50 [2] | SMILES | EC50 [1] | CC50 at 120 h [3] | Activity [4] | selectivity ratio [5]
0.222 µM | Cc1cc(C)cc(S(=O)(=O)n2c(SCC(=O)Nc3ccccc3C)nc3ccccc32)c1 | 0.235 µM | 6.15 µM | inactive | 27
60.6 µM | Cc1cc(C)cc(S(=O)(=O)n2c(SCC(=O)Nc3ccccc3S(C)(=O)=O)nc3ccccc32)c1 | ≥ 9.44 µM | 9.31 µM | inactive | < 1
0.047 µM | Cc1cc(C)cc(S(=O)(=O)n2c(SCC(=O)Nc3ccc(S(C)(=O)=O)cc3)nc3ccccc32)c1 | 0.028 µM | 10.6 µM | inactive | 385
0.13 µM | Cc1cc(C)cc(S(=O)(=O)n2c(SCC(=O)Nc3ccc(C(=O)O)cc3)nc3ccccc32)c1 | 0.2 µM | 115 µM | inactive | 577
21.3 µM | Cc1cc(C)cc(S(=O)(=O)n2c(SCC(=O)Nc3ccccc3C(=O)O)nc3ccccc32)c1 | 6.83 µM | 25.2 µM | inactive | 4
0.091 µM | Cc1ccc(NC(=O)CSc2nc3ccccc3n2S(=O)(=O)c2cc(C)cc(C)c2)cc1 | 0.094 µM | 2.97 µM | inactive | 31
0.088 µM | COC(=O)c1ccc(NC(=O)CSc2nc3ccccc3n2S(=O)(=O)c2cc(C)cc(C)c2)cc1 | 0.051 µM | 10 µM | inactive | 196
7.68 µM | Cc1cc(C)cc(S(=O)(=O)n2c(SCC(=O)Nc3ccccc3S(N)(=O)=O)nc3ccccc32)c1 | 2.72 µM | 25 µM | inactive | 9
15.7 µM | COC(=O)c1ccccc1NC(=O)CSc1nc2ccccc2n1S(=O)(=O)c1cc(C)cc(C)c1 | ≥ 1.06 µM | 5.22 µM | inactive | < 5
